Test results taken from patent publication US11590129B2, “Combination therapy with an antitumor alkaloid” (PHARMA MAR, S.A., priority 2010, dated 2023).
Read-outs that look alike come from different tables or passages of the source.

Assays:
[1] = test system: RXF-393 human kidney carcinoma cell line; test: cells; conditions: Homo sapiens, RXF 393, 72 h
Experimental: (§1) a. […] Briefly, cells were harvested and seeded in 96 well microtiter plates at a density of 5,000 cells in 150 μL of culture medium and incubated for 24 hours in drug-free medium before treatment with vehicle alone or test compounds for 72 h.
(§2) The cytotoxic effect was measured by the MTT reduction assay, in which 3-(4,5-Dimethylthiazol-2-yl)-2,5-diphenyltetrazolium bromide, a tetrazole, which is reduced to purple formazan in the mitochondria of living cells, was used. MTT (50 μL of 1 mg/mL stock solution) was added to the wells and incubated for 8 hours at 37° C. until formazan crystals were formed. After gently removing the culture medium, DMSO was added to dissolve the insoluble purple formazan product into a colored solution. […] Results were expressed as percentage of control cell growth.
(§3) b. In a second set of assays, A549 human tumor cells were incubated with PM01183 in combination with each of the agents mentioned above.
(§4) As a visual aid, response values were plotted on a scatter plot with dose ratios given on the x-axis and % response values on the y-axis. […] In cases where response values at the two endpoints were approximately equivalent, points lying above or below this predicted line of additivity could be interpreted as representing antagonistic or synergistic drug interaction, respectively.
(§5) Additional serial dilutions were prepared in serum-free culture medium to achieve a final 4× concentration. Aliquots of 50 μL of each diluted compound were added per well.

[2] = test system: MDA-MB-231 human breast adenocarcinoma cell line; test: cells; conditions: Homo sapiens, MDA-MB-231, 72 h
Experimental: as §1, §2, §3, §4, §5

[3] = test system: HT-29 human colon adenocarcinoma cell line; test: cells; conditions: Homo sapiens, HT-29, 72 h
Experimental: as §1, §2, §3, §4, §5
HT-29 was the human colon adenocarcinoma cell line selected for this assay.

[4] = test system: A549 human lung carcinoma cell line; test: MTT cytotoxicity assay in A549 cells: IC50 of single agents and combinations with PM01183; format: cell-based; conditions: Homo sapiens
Experimental: as §5
A549 was the human lung carcinoma cell line selected for this assay.
as §1, §2, §3, §4

[5] = test system: A673 human rhabdomyosarcoma cell line; test: cells; conditions: Homo sapiens, A673, 72 h
Experimental: as §1, §2, §3, §4, §5
A673 was the human rhabdomyosarcoma cell line selected for this assay.

[6] = test system: IGROV-1 human ovarian adenocarcinoma cell line; test: cells; conditions: Homo sapiens, IGROV-1, 72 h
Experimental: as §1, §2, §3, §4, §5
IGROV-1 was the human ovarian adenocarcinoma cell line selected for this assay.

[7] = test system: PC-3 human prostate cancer cell line; test: cells; conditions: Homo sapiens, PC-3, 72 h
Experimental: as §1, §2, §3, §4, §5
PC-3 was the human prostate adenocarcinome cell line selected for this assay.

[8] = test system: HepG2 human hepatocellular liver carcinoma cell line; test: MTT cytotoxicity assay in HepG2 cells: IC50 of single agents and combinations with PM01183; format: cell-based; conditions: Homo sapiens, HepG2, 72 h
Experimental: as §1, §2, §3, §4, §5
HepG2 was the human hepatocellular liver carcinoma cell line selected for this assay.

[9] = test system: HGC-27 human gastric carcinoma cell line; test: cells; conditions: Homo sapiens, HGC-27, 72 h
Experimental: as §1, §2, §3, §4, §5
HGC-27 was the human gastric carcinoma cell line selected for this assay.

[10] = test system: SK-MEL-2 human melanoma cell line; test: cells; conditions: Homo sapiens, SK-MEL-2, 72 h
Experimental: as §1, §2, §3, §4, §5
SK-MEL-2 was the human melanoma cell line selected for this assay.

[11] = test system: U87-MG human glioblastoma cell line; test: cells; conditions: Homo sapiens, U-87 MG, 72 h
Experimental: as §1, §2, §3, §4, §5
U87-MG was the human glioblastoma cell line selected for this assay.

[12] = test system: PANC-1 human pancreatic carcinoma cell line; test: cells; conditions: Homo sapiens, PANC-1, 72 h
Experimental: as §1, §2, §3, §4, §5
PANC-1 was the human pancreatic carcinoma cell line selected for this assay.

Structure (SMILES) | IC50 [1] [µM] | IC50 [2] [µM] | IC50 [3] [µM] | IC50 ([4]; A549, 72 h) [µM] | IC50 [5] [µM] | IC50 [6] [µM] | IC50 [7] [µM] | IC50 [8] [µM] | IC50 [9] [µM] | IC50 [10] [µM] | IC50 [11] [µM] | IC50 [12] [µM] | IC50 ([4]; A549, 72 hours drug exposure, MTT, read-out: IC50) [µM]
COc1cc([C@@H]2c3cc4c(cc3[C@@H](O[C@@H]3O[C@@H]5CO[C@@H](C)O[C@H]5[C@H](O)[C@H]3O)[C@H]3COC(=O)[C@H]23)OCO4)cc(OC)c1O [Etoposide, etoposide] | 20 | 4.8 | 5.44 | 0.782 | 1.55 | 3.06 | 48 | 10.4 | 2.9 | 2.89 | 18.5 | 10 | 
CCc1c2c(nc3ccc(OC(=O)N4CCC(N5CCCCC5)CC4)cc13)-c1cc3c(c(=O)n1C2)COC(=O)[C@]3(O)CC [Irinotecan, irinotecan] | 14 | 8.5 | 9 |  |  | 10 | 70 | 1 | 4 | 18 | 7.54 | 90 | 
CO[C@H]1C[C@@H]2CC[C@@H](C)[C@@](O)(O2)C(=O)C(=O)N2CCCC[C@H]2C(=O)O[C@H]([C@H](C)C[C@@H]2CC[C@@H](OC(=O)C(C)(CO)CO)[C@H](OC)C2)CC(=O)[C@H](C)/C=C(\C)[C@@H](O)[C@@H](OC)C(=O)[C@H](C)C[C@H](C)/C=C/C=C/C=C/1C [Temsirolimus, temsirolimus] |  | 12 | 3.5 |  | 1 | 0.127 | 0.5 |  | 0.15 | 50 | 3.5 | 10 | 3.29
CC[C@@]1(O)C(=O)OCc2c1cc1n(c2=O)Cc2cc3c(CN(C)C)c(O)ccc3nc2-1 [Topotecan, topotecan] | 0.393 | 0.166 | 0.328 | 0.8 | 0.024 | 0.3 | 0.633 | 1 | 0.808 | 0.437 | 0.75 | 4.37 | 
